Laboratory results as given in paper PMC5442318, “Hundreds of dual-stage antimalarial molecules discovered by a functional gametocyte screen” (Nature Communications, 2017).
Read-outs that look alike come from different tables or passages of the source.

Tests used:
[1] = system: P. falciparum stages IV–V gametocytes; assay: Gametocytocidal ATP-depletion assay (gametocyte ATP bioluminescence); type: cell-based, Plasmodium falciparum; conditions: for inhibition at 2 µM: Plasmodium falciparum, mean
How it was run: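 Read-out is luciferase luminescence of parasite ATP (BacTiter-Glo), standing in for viability. Double-purified mature stage IV–V gametocytes, 12,500 per well, were exposed 48 h at 37 °C in low-O2 gas; screening concentration 2 μM.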

[2] = system: P. falciparum female gametes; assay: Pf FGAA with compounds added 30 min after triggering gametocyte activation (gamete-targeting); type: cell-based, Plasmodium falciparum NF54; conditions: 0h incubation time
[3] = system: P. falciparum asexual blood stages; conditions: cited from earlier work; for IC50: read-out: Pf Asexual blood stages XC50
[4] = system: P. falciparum stage V female gametocytes; assay: P. falciparum female gametocyte activation assay (Pf FGAA), 24 h or 48 h preincubation, Pfs25 expression readout; type: cell-based, Plasmodium falciparum NF54; design: key to Biological profile: 49 compounds that were only active with a 48 h exposure (designated as slow-acting); 29 compounds additionally showed activity with only 24 h exposure (designated as fast-acting); when the compounds were added 30 min after triggering gametocyte activation, 12 compounds prevented cell surface expression of Pfs25 (designated as gamete-targeting); conditions: for Pf FGAA classification: SLOW / FAST / GAMETE from activity at 48h, 24h, 0h incubation
How it was run: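 Female activation, triggered by xanthurenic acid and cooling, was scored by imaging Cy3-labelled anti-Pfs25 female gametes after 24 h at 26 °C. Beforehand, purified NF54 stage V gametocytes had been incubated with compound for either 24 h or 48 h (37 °C, 3% O2). Values are pIC50 from full-curve regression.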

[5] = system: HepG2 cells; assay: HepG2 cytotoxicity assay; type: cell-based; conditions: for Selectivity ratio: HepG2 TOX50 vs Pf FGAA IC50
How it was run: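 Luminescent read-out (CellTiter-Glo) taken 10 min after reagent addition at RT; plates and reagent pre-equilibrated 30 min at RT.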

[6] = TCAMS data, ref 1 (Gamo et al., 2010)
[7] = TCAMS data, ref 1 (Gamo, F. J. et al., Nature 465, 305-310, 2010)
[8] = Plasmodium falciparum, 24h incubation time, read-out: Pf FGAA IC50 (µM) 24h
[9] = 24h incubation time, read-out: Pf FGAA IC50 (µM) 24h
[10] = mean, read-out: Gametocytes mean Pf FGAA IC50

| SMILES | IC50 ([2]; Plasmodium falciparum) [µM] | IC50 [4, 8] [µM] | IC50 ([4]; Plasmodium falciparum, stage V gametocytes, 48 h exposure, read-out: PfFGAA IC50) [µM] | IC50 [2] [µM] | IC50 [4, 9] [µM] | IC50 [4, 10] [µM] | IC50 ([4]; Plasmodium falciparum, mean, read-out: Gametocytes mean Pf FGAA IC50) [µM] | IC50 ([4]; mean, P. falciparum female gametocyte activation assay, read-out: Gametocytes mean Pf FGAA IC50) [µM] | inhibition at 2 µM [1] [%] | IC50 [3, 6] [nM] | Pf Asexual stages XC50 [3, 7] [nM] | Biological profile ([4]; Pf FGAA with 48 h, 24 h or post-activation addition, active = IC50 below 2 μM) | Pf FGAA classification [4] | Selectivity ratio [5] | selectivity ratio (selectivity index) ([5]; HepG2 Tox50 vs Pf FGAA IC50) | HepG2 cells mean TOX50 [5] [µM] | Gametocytes mean ATP inhibition at 2µM (%) [1] [%] | Gametocytes mean ATP inhibition at 2µM [1] [%] | IC50 ([3]; TCAMS asexual blood stage data, ref 1 (Gamo, F. J. et al., Nature 465, 305-310, 2010)) [nM] | HepG2 cells mean TOX50 ([5]; HepG2 cells) [µM] |
| --- | --- | --- | --- | --- | --- | --- | --- | --- | --- | --- | --- | --- | --- | --- | --- | --- | --- | --- | --- | --- |
| COc1cc2nc(-c3ccc(Br)cc3)cc(N)c2cc1OC [TCMDC-138933] | 8.17 | 3.91 | 0.76 | – | – | – | – | – | 0.89 | 170 | 170 | slow-acting | SLOW | 6.53 | < 10 | 4.95 | – | – | – | – |
| CCN1CCC2(c3cccc(OC)c3)Cc3nc4ccccc4c(-c4ccccc4)c3CC2C1 (stereo not drawn) [TCMDC-138968] | – | – | – | > 20 | > 20 | 1.43 | – | – | – | 350 | 790 | – | SLOW | – | – | 33.25 | 21.53 | – | – | – |
| CCCCCCCN1CC[C@@H](CCCc2ccnc3ccc(OC)cc23)[C@@H](CNC)C1.O=C(O)C(=O)O [TCMDC-139875] | – | – | – | 14.4 | 1.86 | 0.73 | – | – | – | 210 | 210 | – | FAST | – | – | 5.89 | 9.45 | – | – | – |
| COc1cccc(CCNC(C)Cc2ccc(OCCCCOc3ccccc3)cc2)c1 (stereo not drawn) [TCMDC-140020] | – | – | – | > 20 | 3.72 | 1.51 | – | – | – | 740 | 740 | – | SLOW | – | – | 1.46 | 8.01 | – | – | – |
| Nc1ccc2[nH]cc(C3CCN(CC4CCC(NC(=O)/C=C/c5ccc(Cl)c(Cl)c5)CC4)CC3)c2n1 (stereo not drawn) [TCMDC-140064] | – | – | – | > 20 | 6.18 | 0.69 | – | – | – | 730 | 730 | – | SLOW | – | – | 12.59 | -8.60 | – | – | – |
| CN1CCN(CCCNCc2ccccc2-c2cccc(CNCc3ccc4c(c3)OCO4)c2)CC1.O=C(O)C(F)(F)F [TCMDC-140476] | – | – | – | > 20 | 5.7 | 1.64 | – | – | – | 790 | 1070 | – | SLOW | – | – | 1.51 | -1.87 | – | – | – |
| CN(C)CCOc1ccc(NC(=O)NC(C)(C)c2nc(-c3ccc(Cl)c(O)c3)c(-c3ccncc3)[nH]2)cc1.Cl [TCMDC-140744] | – | – | – | 10.6 | 0.23 | 0.73 | – | – | – | 110 | 110 | – | FAST | – | – | 14.30 | -0.87 | – | – | – |
| CNCC(C)(C)c1nc(-c2ccc(Cl)c(O)c2)c(-c2ccncc2)[nH]1.Cl [TCMDC-140762] | – | – | – | 0.61 | 1.06 | 0.88 | – | – | – | 740 | 740 | – | GAMETE | – | – | 13.52 | -1.34 | – | – | – |

The next lines start with results.

| IC50 ([2]; Plasmodium falciparum) [µM] | IC50 [4, 8] [µM] | IC50 ([4]; Plasmodium falciparum, stage V gametocytes, 48 h exposure, read-out: PfFGAA IC50) [µM] | IC50 [2] [µM] | IC50 [4, 9] [µM] | IC50 [4, 10] [µM] | IC50 ([4]; Plasmodium falciparum, mean, read-out: Gametocytes mean Pf FGAA IC50) [µM] | IC50 ([4]; mean, P. falciparum female gametocyte activation assay, read-out: Gametocytes mean Pf FGAA IC50) [µM] | SMILES | inhibition at 2 µM [1] [%] | IC50 [3, 6] [nM] | Pf Asexual stages XC50 [3, 7] [nM] | Biological profile ([4]; Pf FGAA with 48 h, 24 h or post-activation addition, active = IC50 below 2 μM) | Pf FGAA classification [4] | Selectivity ratio [5] | selectivity ratio (selectivity index) ([5]; HepG2 Tox50 vs Pf FGAA IC50) | HepG2 cells mean TOX50 [5] [µM] | Gametocytes mean ATP inhibition at 2µM (%) [1] [%] | Gametocytes mean ATP inhibition at 2µM [1] [%] | IC50 ([3]; TCAMS asexual blood stage data, ref 1 (Gamo, F. J. et al., Nature 465, 305-310, 2010)) [nM] | HepG2 cells mean TOX50 ([5]; HepG2 cells) [µM] |
| --- | --- | --- | --- | --- | --- | --- | --- | --- | --- | --- | --- | --- | --- | --- | --- | --- | --- | --- | --- | --- |
| – | – | – | > 20 | 1.54 | 0.69 | – | – | CN1CCN(c2cc3c(cc2Cl)CCN3C(=O)Nc2ccc(NC(=O)c3ccc(C(F)(F)F)cc3)cc2)CC1.Cl [TCMDC-139270] | – | 510 | 1100 | – | FAST | – | – | 3.99 | 1.67 | – | – | – |
| – | – | – | > 20 | 2.22 | 1.09 | – | – | O=C(Nc1cc(Cl)c(Cl)cc1NC(=O)c1cccc(-c2ccccc2)c1O)c1cccc(-c2ccccc2)c1O [TCMDC-139548] | – | 510 | 510 | – | FAST | – | – | 3.09 | 18.16 | – | – | – |
| – | – | – | > 20 | 9.9 | 0.86 | – | – | CC(Cc1ccc(NC(=O)c2ccc(CC(C)NCc3ccc(Cl)cc3)cc2)cc1)NCCc1cccc(Cl)c1 (stereo not drawn) [TCMDC-139810] | – | 450 | 450 | – | SLOW | – | – | 4.03 | -5.12 | – | – | – |
| > 20 | 1.87 | – | – | – | – | 1.68 | – | CN(C)CCCNCc1ccc(-c2ccc(C(F)(F)F)cc2)cc1 [TCMDC-140011] | 1.03 | 870 | 870 | – | FAST | 2.92 | – | 4.90 | – | – | – | – |
| – | – | – | 13.1 | 14.2 | 1.38 | – | – | CC(=O)Nc1ccc2[nH]cc(C3CCN(CC4CCN(C(=O)/C=C/c5ccc(Cl)c(Cl)c5)CC4)CC3)c2n1 [TCMDC-140112] | – | 160 | 160 | – | SLOW | – | – | 12.59 | 8.03 | – | – | – |
| – | – | – | > 20 | 15.5 | 1.74 | – | – | CC(=O)Nc1ccc2[nH]cc(C3CCN(CC4CCC(NC(=O)/C=C/c5ccc(Cl)c(Cl)c5)CC4)CC3)c2n1 (stereo not drawn) [TCMDC-140114] | – | 260 | 260 | – | SLOW | – | – | 13.49 | -7.40 | – | – | – |
| – | – | – | > 20 | 9.4 | 1.38 | – | – | CCN(CC)CCN(Cc1ccc(-c2ccc(Cl)cc2)cc1)C(=O)Cn1cc(CN(C)C)c(=O)nc1SCc1ccc(F)cc1 [TCMDC-140406] | – | 750 | 750 | – | SLOW | – | – | 6.61 | -10.76 | – | – | – |
| – | – | – | 0.49 | 0.79 | 0.84 | – | – | CC(C)(CN)c1nc(-c2ccc(Br)c(O)c2)c(-c2ccncc2)[nH]1.Cl [TCMDC-140680] | – | 960 | 390 | – | GAMETE | – | – | 45.82 | -3.29 | – | – | – |
| – | – | – | 0.89 | 0.14 | 0.9 | – | – | N=C(N)Nc1nc(-c2ccc(NCc3ccc(CNc4cccc(-c5csc(NC(=N)N)n5)c4)cc3)cc2)cs1 [TCMDC-140699] | – | 310 | 310 | – | GAMETE | – | – | 4.79 | 23.62 | – | – | – |
| – | – | – | 1.61 | 4.68 | 1.91 | – | – | CN1CCC=C(C(=O)NCC(C)(C)c2nc(-c3ccc(Cl)c(O)c3)c(-c3ccncc3)[nH]2)C1.Cl [TCMDC-140700] | – | 1000 | 1000 | – | GAMETE | – | – | 13.36 | -6.01 | – | – | – |
| – | – | – | 2.06 | 2.48 | – | – | 1.58 | CC(C)(CNC(=O)[C@@H]1CCCCN1)c1nc(-c2ccc(Cl)c(O)c2)c(-c2ccncc2)[nH]1.Cl [TCMDC-141079] | – | – | 840 | – | GAMETE | – | – | – | – | -6.33 | 840 | 38.91 |
